Test results published in PMC7179653 (Antimicrobial Agents and Chemotherapy, 2020).

Columns and labels:
[1] = SAD study: safety and tolerability (TEAEs); format: in vivo, human; conditions: for TEAE: Abdominal pain / TEAE: Application site rash / TEAE: Chest discomfort / TEAE: Cough / TEAE: Fatigue / TEAE: Feeling hot / TEAE: Headache / TEAE: Nasal congestion / TEAE: Rhinitis / TEAE: Sinus tachycardia / ≥1 TEAE / ≥1 drug-related TEAE / ≥1 serious TEAE / ≥1 severe TEAE: n = 6
Protocol: The two studies were randomized, double-blind, placebo-controlled studies that enrolled participants into sequential treatment cohorts using a 3:1 active treatment-to-placebo randomization ratio.
A sentinel dosing strategy was employed in both studies. […] In all cohorts, escalation to the next dose occurred after a safety review of the previous cohort. In the MAD study, sentinel dosing was performed in part 3, wherein participants were evaluated for safety up to 24 h after administration of the first drug combination (or placebo) on day 3, prior to enrolling additional participants.
(§1) Safety assessments included monitoring of AEs, laboratory safety tests (hematology, serum chemistry, and urinalysis), 12-lead ECG (discrete recordings and 24-h Holter recording), and vital signs (blood pressure, pulse rate, and body temperature). In the SAD study, safety assessments were performed predose at screening, at day 1, postdose periodically on days 1, 2, and 7 (follow-up), and at early withdrawal, if relevant. Blood samples for pharmacokinetic profiling in the SAD study were collected on day 1 before the morning infusion and 0.5, 1, 1.5, 2, 3, 4, 6, 8, 12, and 24 h postinfusion start. In the MAD study, safety assessments were done predose at screening, at day 2, postdose periodically on days 1, 2, 4, 7, and 8, on days 13 to 15 (follow-up), and at early withdrawal, if relevant. In the MAD study, blood samples were collected on days 1 and 9 prior to the morning infusion and 0.5, 1, 1.5, 2, 3, 4, 6, 8, and 12 h (on day 9 only) postinfusion start. On all other days, a single predose sample was collected for pharmacokinetic evaluation prior to the morning infusion. Blood was collected into lithium-heparin tubes and stored at a nominal –80°C temperature until analysis.

[2] = parameters: method as in unpublished data; conditions: ref unpublished data; cited from earlier work
[3] = Intensive ECG monitoring and exposure-response analysis of QTcF; format: in vivo, human
Protocol: as §1, with “Blood samples for pharmacokinetic profiling in the SAD study were collected on day 1 before the morning infusion and 0.5, 1, 1.5, 2, 3, 4, 6, 8, 12, and 24 h postinfusion start.” left out, “In the MAD study, blood samples were collected on days 1 and 9 prior to the morning infusion and 0.5, 1, 1.5, 2, 3, 4, 6, 8, and 12 h (on day 9 only) postinfusion start.” left out

## NCCONC(=O)[C@@H]1CC[C@@H]2CN1C(=O)N2OS(=O)(=O)O [Nacubactam]
[1]; SAD, 50 mg
  TEAE: Abdominal pain: 0 n/E
  TEAE: Application site rash: 0 n/E
  TEAE: Chest discomfort: 1/1
  TEAE: Cough: 0 n/E
  TEAE: Fatigue: 1/1
  TEAE: Feeling hot: 0 n/E
  TEAE: Headache: 0 n/E
  TEAE: Nasal congestion: 1/1
  TEAE: Rhinitis: 0 n/E
  TEAE: Sinus tachycardia: 0 n/E
  ≥1 TEAE: 2/3
  ≥1 drug-related TEAE: 0 n/E
  ≥1 serious TEAE: 0 n
  ≥1 severe TEAE: 0 n
[1]; SAD, 150 mg
  TEAE: Abdominal pain: 0 n/E
  TEAE: Application site rash: 0 n/E
  TEAE: Chest discomfort: 0 n/E
  TEAE: Cough: 1/1
  TEAE: Fatigue: 0 n/E
  TEAE: Feeling hot: 1/1
  TEAE: Headache: 0 n/E
  TEAE: Nasal congestion: 0 n/E
  TEAE: Rhinitis: 0 n/E
  TEAE: Sinus tachycardia: 1/1
  ≥1 TEAE: 1/3
  ≥1 drug-related TEAE: 0 n/E
  ≥1 serious TEAE: 0 n
  ≥1 severe TEAE: 0 n
[1]; SAD, 500 mg
  TEAE: Abdominal pain: 0 n/E
  TEAE: Application site rash: 0 n/E
  TEAE: Chest discomfort: 0 n/E
  TEAE: Cough: 0 n/E
  TEAE: Fatigue: 0 n/E
  TEAE: Feeling hot: 0 n/E
  TEAE: Headache: 1/1
  TEAE: Nasal congestion: 0 n/E
  TEAE: Rhinitis: 1/1
  TEAE: Sinus tachycardia: 0 n/E
  ≥1 TEAE: 2/2
  ≥1 drug-related TEAE: 0 n/E
  ≥1 serious TEAE: 0 n
  ≥1 severe TEAE: 0 n
[1]; SAD, 1,000 mg
  TEAE: Abdominal pain: 1/1
  TEAE: Application site rash: 0 n/E
  TEAE: Chest discomfort: 0 n/E
  TEAE: Cough: 0 n/E
  TEAE: Fatigue: 1/1
  TEAE: Feeling hot: 0 n/E
  TEAE: Headache: 0 n/E
  TEAE: Nasal congestion: 0 n/E
  TEAE: Rhinitis: 0 n/E
  TEAE: Sinus tachycardia: 0 n/E
  ≥1 TEAE: 2/2
  ≥1 drug-related TEAE: 0 n/E
  ≥1 serious TEAE: 0 n
  ≥1 severe TEAE: 0 n
[1]; SAD, 2,000 mg
  TEAE: Abdominal pain: 0 n/E
  TEAE: Application site rash: 0 n/E
  TEAE: Chest discomfort: 0 n/E
  TEAE: Cough: 0 n/E
  TEAE: Fatigue: 0 n/E
  TEAE: Feeling hot: 0 n/E
  TEAE: Headache: 1/1
  TEAE: Nasal congestion: 0 n/E
  TEAE: Rhinitis: 0 n/E
  TEAE: Sinus tachycardia: 0 n/E
  ≥1 TEAE: 1/1
  ≥1 drug-related TEAE: 1/1
  ≥1 serious TEAE: 0 n
  ≥1 severe TEAE: 0 n
[1]; SAD, all nacubactam doses, 30 participants
  total number of AEs: 11
[1]; SAD, all nacubactam doses, eight of the 30 participants
  participants reporting one or more AEs: 26.7%
[2]
  fraction unbound: 0.98
  protein binding: 2%
[3]; 90% CI, 3.8879 to 1.9931, P = 0.59
  treatment estimate, linear model of change in QTcF vs plasma concentration: 0.9474
[3]; P = 0.73
  slope estimate, linear model of change in QTcF vs plasma concentration: 0.00422
[3]; at the Cmax of 325 μg/ml, each of the three models
  upper limit of the two-sided 90% CI of predicted change from baseline in QTcF: < 10 ms
[3]; at the Cmax of 325 μg/ml, each of the three models (linear, quadratic, log-linear)
  predicted mean change from baseline in QTcF: < 3 ms
[3]; nacubactam alone, intensive ECG monitoring
  effect on QTc interval duration, other ECG intervals, or ECG morphology: did not reveal any significant effects
